# Data from patent publication US20250387378A1, “METHODS AND COMPOSITIONS FOR PREVENTING SKIN TOXICITIES CAUSED BY BIOLOGICAL TARGETED CANCER DRUGS” (Hadasit Medical Research Services & Development Limited, priority 2019, published 2025).
# “Also recorded” adds a separate entry of the source. Structures can show the parent of a compound that is named as a salt.
# What was measured:
# keratinocytes = experiment: percent live keratinocytes after adding sn molecules to erlotinib and gefitinib; assay type: cell-based; details: added to erlotinib and gefitinib, FIG. 9B
# EGFR [1] = biological target: T1, EGFR (Homo sapiens, UniProt P00533); experiment: ELISA, blocking of cetuximab binding to EGFR; details: for blocking of cetuximab binding to EGFR (in words): ELISA
# [2] = biological target: recombinant human EGFR (rhEGFR) (Homo sapiens, UniProt P00533); experiment: ELISA, inhibition of bispecific EGFRi antibody binding to rhEGFR
# Method: (§1) The efficacity of SDT-011 efficacy in preventing bispecific EGFRi binding to recombinant human EGFR (rhEGFR) was evaluated. ELISA was used to assess binding inhibition, while MTT assays in HaCaT and A431 cell lines measured the reversal of EGFR inhibition on keratinocyte cell line proliferation, and flow cytometry quantified EGFR expression on the cell surface. Additionally, in silico docking experiments provided insights into SDT-011's mechanism of action in blocking amivantamab, petosemtamab, and izalontamab.
# EGFR [3] = biological target: T1, EGFR; experiment: flow cytometry of EGFR expression on the cell surface with bispecific EGFRi; assay type: cell-based
# Method: as §1
# [4] = system: phosphorylated EGFR receptor; experiment: p-EGFR level by flow cytometry, A431 cells treated with EGF and cetuximab; assay type: cell-based; details: for effect on p-EGFR expression (in words): A431 cells treated with cetuximab, 5 uM compound; for activated levels of p-EGFR: A431 cells, 20 minutes, EGF, cetuximab and 5 uM compound
# Method: (§2) The level of phosphorylated EGFR receptor was measured in cell lines by flow cytometry.
# [5] = system: HaCaT and A431 cell lines; experiment: MTT proliferation assay with bispecific EGFRi; assay type: cell-based; details: keratinocyte cell lines
# Method: as §1
# [6] = system: phosphorylated EGFR receptor; experiment: p-EGFR level by flow cytometry, HaCaT cells treated with EGF and cetuximab; assay type: cell-based, human; details: for effect on p-EGFR expression (in words): HaCaT cells treated with cetuximab, 5 uM compound
# Method: (§3) The novel approach proposed by the invention is to specifically target and block the effect of the anti-neoplastic biological targeted agents in the skin.
# as §2
# HaCaT keratinocytes = experiment: percent survival of HaCaT keratinocytes with trametinib plus sn8; assay type: cell-based, human; details: added to trametinib, FIG. 9B
# HaCaT cells [7] = experiment: annexin-V/PI flow cytometry, cetuximab induced cell death in HaCaT cells; assay type: cell-based, human
# Method: as §3
# (§4) Apoptosis and cell death were evaluated by annexin-V and propidium-iodide (PI) labeling, followed by flow cytometry.
# [8] = Franz chamber skin penetration; assay type: in vitro ADME, human; details: FIG. 12
# Excerpt: The inventors designed and fabricated solidified polymer micelles composed of linear […] (PEG-PLA) of ˜20 nm, which was previously shown to have stability and ability to penetrate cells efficiently.
# EGFR [9] = biological target: T1, EGFR; experiment: blocking of panitumumab (vectibix) binding to EGFR; details: FIG. 3
# A431 cells [10] = experiment: annexin-V/PI flow cytometry, panitumumab induced death in A431 cells; assay type: cell-based; details: 72 hours
# Method: Apoptosis and cell death were evaluated by annexin-V and propidium-iodide (PI) labeling, followed by flow cytometry. The experiments show improved cell viability of A431 cells treated with G-4 and E-3 compounds with panitumumab as compared to panitumumab alone. A) flow cytometry of one representative experiment showing elevation of percentage of live cells from 18% live cells after panitumumab alone verses 40% live cells with panitumumab and G-4 compound and 42% live cells with E-3 compound and panitumumab treatment. B) bar graph depicting percent live A431 cells with the different treatment conditions.
# A431 cells [11] = experiment: annexin-V/PI flow cytometry, cetuximab induced cell death in A431 cells; assay type: cell-based
# Method: as §4
# HaCaT cells [12] = experiment: annexin-V/PI flow cytometry, erlotinib induced death in HaCaT cells; assay type: cell-based, human; details: erlotinib alone, 72 hours
# Method: To test if ATP analogues can protect keratinocyte from erlotinib induced death we treated HaCaT cells with erlotinib alone and with erlotinib+5 uM ATP analogue for 72 hours. Apoptosis and cell death were evaluated by annexin-V and propidium-iodide (PI) labeling, followed by flow cytometry. […] B) bar graph depicting percent dead HaCaT cells with the different treatment conditions.
# [13] = G-4 added to cetuximab treatment, 72 hours, one representative experiment
# [14] = cetuximab + 0.5 uM and 5 uM G-4, 72 hours
# [15] = panitumumab + compound (0.5 uM and 5 uM)
compound,measurement,setting,value
N#Cc1cc(N)ccc1F [sn6],percent live keratinocytes (in words),keratinocytes,improved percent live keratinocytes
Cc1ccc(-c2cc(C(F)(F)F)c3c(N)c(C#N)sc3n2)cc1 [LW11],blocking of cetuximab binding to EGFR (in words),EGFR [1],dose-dependent manner; also recorded: block cetuximab's binding to EGFR
same,inhibition of amivantamab binding to EGFR (in words),[2]; FIG. 17 panel A,effectively inhibited the binding
same,inhibition of petosemtamab binding to EGFR (in words),[2]; FIG. 17 panel B,effectively inhibited the binding
same,inhibition of izalontamab binding to EGFR (in words),[2]; FIG. 17 panel C,effectively inhibited the binding
same,total EGFR (tEGFR) expression / receptor internalization by amivantamab (in words),EGFR [3]; FIG. 18 panel A,stabilizes total EGFR (tEGFR) expression
same,total EGFR (tEGFR) expression / receptor internalization by petosemtamab (in words),EGFR [3]; FIG. 18 panel B,stabilizes total EGFR (tEGFR) expression
same,total EGFR (tEGFR) expression / receptor internalization by izalontamab (in words),EGFR [3]; FIG. 18 panel C,stabilizes total EGFR (tEGFR) expression
same,effect on p-EGFR expression (in words),[4],increase p-EGFR expression
same,activated levels of p-EGFR,[4],~30%
same,antiproliferative effects induced by amivantamab (in words),[5]; FIG. 18 panel D,reversal of the antiproliferative effects
same,antiproliferative effects induced by petosemtamab (in words),[5]; FIG. 18 panel E,reversal of the antiproliferative effects
same,antiproliferative effects induced by izalontamab (in words),[5]; FIG. 18 panel F,reversal of the antiproliferative effects
same,effect on p-EGFR expression (in words),[6],increase p-EGFR expression
same,activated levels of p-EGFR,"[6]; HaCaT cells, 20 minutes, EGF, cetuximab and 5 uM compound",up to 46%
Nc1ccc(OCc2ccccn2)c(Cl)c1 [sn8],percent live keratinocytes (in words),keratinocytes,improved percent live keratinocytes
same,percent survival of HaCaT keratinocytes (in words),HaCaT keratinocytes,improved percent survival of HaCaT keratinocytes
"CC(=O)c1sc2nc(-c3cccnc3)cc(C(F)F)c2c1N [G4, 1-[3-amino-4-(difluoromethyl)-6-(3-pyridinyl)thieno[2,3-b]pyridin-2-yl]ethanone]",blocking of cetuximab binding to EGFR (in words),EGFR [1],blocking of cetuximab binding to EGFR; also recorded: dose-dependent manner; also recorded: block cetuximab's binding to EGFR
same,blocking of binding of cetuximab to EGFR,"EGFR [1]; screening plate, FIG. 2A",42%
same,live cells,HaCaT cells [7]; [13],64%
same,average improvement of viability against cetuximab induced cell death,HaCaT cells [7]; [14],30%
same,penetration through full human skin (in words),[8],does not penetrate full human skin
same,blocking of panitumumab (vectibix) binding to EGFR (in words),EGFR [9],block the binding
same,effect on p-EGFR expression (in words),[4],increase p-EGFR expression
same,activated levels of p-EGFR,[4],~30%
same,live cells,A431 cells [10]; [15],40%
same,effect on p-EGFR expression (in words),[6],increase p-EGFR expression
same,live cells,A431 cells [11]; [13],54.5%
same,average improvement of viability against cetuximab induced cell death,A431 cells [11]; [14],more than 50%
O=C(CN1C(=O)c2ccccc2C1=O)Nc1cccc(Cl)c1 [sn9],percent live keratinocytes (in words),keratinocytes,improved percent live keratinocytes
panitumumab: human monoclonal antibody specific to the epidermal growth factor receptor [reference compound],live cells,A431 cells [10]; panitumumab alone,18%
CC(=O)Nc1ccc(F)c(Cl)c1 [sn7],percent live keratinocytes (in words),keratinocytes,improved percent live keratinocytes
"Cc1cc(Cl)cc(N)c1N [E3, (2-amino-4-chloro-6-methylphenyl)amine hydrochloride]",blocking of cetuximab binding to EGFR (in words),EGFR [1]; hydrochloride,blocking of cetuximab binding to EGFR; also recorded: dose-dependent manner
same,blocking of panitumumab (vectibix) binding to EGFR (in words),EGFR [9],block the binding
same,live cells,A431 cells [10]; [15],42%
C#Cc1cccc(Nc2ncnc3cc(OCCOC)c(OCCOC)cc23)c1 [erlotinib],dead cells,HaCaT cells [12],13.5%
